Source: patent publication US11882828B2, “Mosquito vector control compositions, methods and products utilizing same” (priority 2015, dated 2024)

Legend:
Format in all cases: in vivo
[1] = tested on: Ae. aegypti Caymon; test: Example B4: cross resistance study, 6-well plate
Experimental: (§1) In each study, a set of plates were infested with a known insecticide susceptible strain of mosquitoes from the same genera as the resistant strains.
(§2) Assessment of the knockdown after 60 minutes and mortality after 24 hours was carried out. Each treatment was replicated a minimum of four times, with the mean knockdown or mortality recorded.
(§3) A comparison of the knockdown and mortality of the resistant strain of mosquitoes was made to that of the susceptible to identify evidence of cross resistance.

[2] = tested on: An. Gambiae Kisumu sus; test: Example B4: cross resistance study, 6-well plate
Experimental: as §1, §2, §3

[3] = tested on: Ae. Aegypti New Orleans; test: Example B4: cross resistance study, 6-well plate
Experimental: as §1, §2, §3

[4] = tested on: An. Gambiae Kisumu rdl; test: Example B4: cross resistance study, 6-well plate
Experimental: as §1, §2, §3

[5] = tested on: An. Arabiensis Moz sus; test: Example B4: cross resistance study, 6-well plate
Experimental: as §1, §2, §3

[6] = tested on: An. Gambiae Tiassalé; test: Example B4: cross resistance study, 6-well plate
Experimental: as §1, §2, §3

[7] = tested on: An. stephensi; test: Example B4: cross resistance study, 6-well plate
Experimental: as §1, §2, §3

[8] = tested on: Anopheles stephensi; test: Example B7: evaluation of insecticide impregnated polymer surfaces; settings: AI content 2 wt %; for mortality: 24 hours after exposure; for knock-down: after one hour
Source text: (§4) Preparation of polymeric sheets: Certain methoxyacrylate were Impregnated into three polymers: LDPE (low density polyethylene), HDPE (high density polyethylene) and PP (polypropylene) in different concentrations by mixing the respective polymer with a compound at high temperatures and the resultant polymeric material were then mould into thin discs or plaques.
(§5) Twenty four hours prior to the relevant assessment intervals, three to five day old non-blood fed adult mosquitoes were taken from the culture and lightly anaesthetised with carbon dioxide. Ten females were selected and placed in a 250 ml plastic cup, retained with a net lid, provided with a 10% sucrose solution soaked in a cotton wool bung and held under culturing environmental conditions.
(§6) After twenty four hours, impregnated polymer sheets (measuring about 150 mm in diameter and about 0.1 mm in thickness) were removed from storage and wrapped around the glazed side of an 11 cm ceramic tile and held in place with an elastic band. A cup of the pre-selected mosquitoes were again lightly anaesthetised with carbon dioxide and transferred from the holding cup to the base of a 9 cm plastic Petri dish. The relevant impregnated polymer sheet was placed over the Petri dish and held in place with an elastic band. Once the mosquitoes had recovered from the anaesthetic, ca. 1 minute, the impregnated polymer sheet was placed on a holding rack, such that treated side was at an angle of […] to the horizontal.
(§7) After one hour an assessment of mosquito knockdown was made. A mosquito was said to be knocked down if it was unable to right itself once it had fallen over. The mosquitoes were lightly anaesthetised again, and removed from the Petri dish exposure chamber and returned to the holding cups. The mosquitoes were supplied with a 10% sucrose solution soaked in a cotton wool bung and held under culturing environmental conditions. An assessment of mortality was made 24 hours after exposure. A mosquito was said to be dead if it is unable to right itself once it had fallen over.

[9] = tested on: Aedes aegypti; test: as above; settings: AI content 2 wt %, polymer 4 to 6 weeks old; for mortality: 24 hours after exposure; for knock-down: after one hour
Source text: as §4, §5, §6, §7

[10] = tested on: An. Gambiae Kisumu sus; test: Example B5: bottle based cross resistance study (CDC bottle assay); settings: Kisumu sus; for mortality at 25 ppm: 24 h
Experimental: (§8) Based on the “CDC bottle assay” (described at http://www.cdc.gov/malaria/resources/pdf/fsp/ir_manual/ir_cdc_bioassay_en.pdf) 1 ml of ethanol containing a test compound at a defined concentration was added to a 250 ml glass bottle and the bottles were placed on a rolling table to coat the inner surfaces as the solvent evaporated. Once dry, twenty five non-blood fed adult female mosquitoes of the appropriate species and strains (each three day old) were aspirated from the stock culture and gently blown into the exposure bottles. The lid of the bottle was replaced and the bottle placed upright out of direct sun light under standard culture conditions, nominally 28C and 60-80% relative humidity.
(§9) A stopwatch was started, and the assessment of the knock-down were made after 15 minutes and 60 minutes. A mosquito was said to be knocked down if it was unable to stand, following the CDC definition. The bottles were replaced in an upright position when not being assessed.
(§10) After one hour the mosquitoes were carefully removed from the bottle with an aspirator and placed in a recovery cup. The mosquitoes were supplied with a 10% sucrose solution on a cotton wool bung, and stored under culture conditions. Assessments of the mortality were made after 24 hours.
(§11) Each treatment was replicated a minimum of four times, with the mean knockdown or mortality recorded. In each study, a set of bottles was infested with a known insecticide susceptible strain of mosquitoes from the same genera as the resistant strains.

[11] = tested on: VK7; test: as above; settings: Anopheles coluzzii, 24 h, after 24 hours
Experimental: as §8, §9, §10, §11

[12] = tested on: FUMOZ; test: as above; settings: Anopheles funestus, 24 h, 25 ppm, after 24 hours, FUMOZ
Experimental: as §8, §9, §10, §11

[13] = tested on: An. Gambiae Tiassalé; test: as above
Experimental: as §8, §9, §10, §11

[14] = tested on: An. stephensi; test: as above
Experimental: as §8, §9, §10, §11

## CC1(C)C(C=C(Cl)Cl)C1C(=O)OCc1cccc(Oc2ccccc2)c1 (centres unmarked) [Permethrin, reference compound]
[1]; 2.50 ppm, after 60 minutes, Caymon
  Knockdown: 0%
[1]; Aedes aegypti, 24 h
  mortality at 2.5 ppm: 45%
[2]; 2.50 ppm, after 60 minutes, Kisumu sus
  Knockdown: 100%
[2]; Anopheles gambiae, 24 h
  mortality at 2.5 ppm: 100%
[3]; 2.50 ppm, after 60 minutes, New Orleans
  Knockdown: 91%
[3]; Aedes aegypti, 24 h
  mortality at 2.5 ppm: 100%
[4]; 2.50 ppm, after 60 minutes, Kisumu rdl
  Knockdown: 100%
[4]; Anopheles gambiae, 24 h
  mortality at 2.5 ppm: 100%
[5]; 2.50 ppm, after 60 minutes, Moz sus
  Knockdown: 75%
[5]; Anopheles arabiensis, 24 h
  mortality at 2.5 ppm: 100%
[6]; 2.50 ppm, after 60 minutes, Tiassalé
  Knockdown: 5%
[6]; Anopheles gambiae, 24 h
  mortality at 2.5 ppm: 14%
[7]; 2.50 ppm, after 60 minutes, An. stephensi
  Knockdown: 85%
[7]; Anopheles stephensi, 24 h
  mortality at 2.5 ppm: 100%
[8]; HDPE, polymer 4 to 6 weeks old
  mortality: 70%
  knock-down: 100%
[8]; HDPE, polymer 6 to 8 weeks old
  mortality: 97%
  knock-down: 100%
[8]; LDPE, polymer 4 to 6 weeks old
  mortality: 100%
  knock-down: 100%
[8]; LDPE, polymer 6 to 8 weeks old
  mortality: 100%
  knock-down: 100%
[8]; PP, polymer 4 to 6 weeks old
  mortality: 23%
  knock-down: 100%
[8]; PP, polymer 6 to 8 weeks old
  mortality: 67%
  knock-down: 100%
[9]; HDPE
  mortality: 97%
  knock-down: 100%
[9]; LDPE
  mortality: 100%
  knock-down: 100%
[9]; PP
  mortality: 80%
  knock-down: 87%
[10]; 20 ppm, bottle
  Knockdown (%) at 15 mins: 100%
  Knockdown (%) at 60 mins: 100%
[10]; Anopheles gambiae, 20 ppm, bottle, one hour exposure, after 24 hours
  mortality at 20 ppm: 100%
[10]; Anopheles gambiae, Table B5b, after 24 hours
  mortality at 25 ppm: 99%
[10]; Anopheles gambiae, Table B5c, after 24 hours
  mortality at 25 ppm: 100%
[11]; Table B5b
  mortality at 25 ppm: 3%
[11]; Table B5c
  mortality at 25 ppm: 4%
[12]; Table B5b
  mortality at 25 ppm: 24%
[12]; Table B5c
  mortality at 25 ppm: 46%
[13]; 20 ppm, bottle, Tiassalé
  Knockdown (%) at 15 mins: 50%
  Knockdown (%) at 60 mins: 99%
[13]; Anopheles gambiae
  mortality at 20 ppm: 85%
[14]; 20 ppm, bottle, An. stephensi
  Knockdown (%) at 15 mins: 97%
  Knockdown (%) at 60 mins: 100%
[14]; Anopheles stephensi
  mortality at 20 ppm: 100%
